Test results reported in patent US20240166681A1, “3'3' CYCLIC DINUCLEOTIDES CONTAINING ISONUCLEOTIDIC UNITS” (INSTITUTE OF ORGANIC CHEMISTRY AND BIOCHEMISTRY AS CR, V. …, priority 2021, published 2024).

Target: WT STING (Homo sapiens, UniProt Q86WV6, H232R)
Experiment: 293T WT STING standard reporter assay
Type: cell-based
Set-up: host or cells: 293T (ATCC CRL-3216), stably transfected
Details: 293T wtSTING-FL cells, no digitonin, 7 h incubation, luciferase reporter
Description: After 5 minutes incubation at room temperature (RT), 250 μL of the mixture was added dropwise to the cells in one well. Cells were incubated 36 hours at 37° C. with 5% CO2, and then detached with 0.05% Trypsin and 0.22 g/L EDTA (both cat. #L0941, Biowest, Riverside, USA).
Transfected cells were seeded onto poly-D-lysine coated six well plates at density 50,000 cells per 1 cm^2 in DMEM medium with high glucose containing 10% heat inactivated FBS, 30 μg/mL blasticidin (cat. #ant-b1-05, InvivoGen, San Diego, USA), 0.06 mg/ml Penicillin G and 0.1 mg/ml Streptomycin Sulfate (both cat. #. L0018, Biowest, Riverside, USA). The medium was replenished every 3-4 days until visible colonies of cells resistant to blasticidin were formed.
Blasticidin resistant cells stably expressing WT STING were further transfected with […] plasmid following the same procedure as described above. […] Homogeneous culture of stably double transfected cells was prepared by limiting dilution of cells in 96 well plates and wells with cells were selected that originated from a single cell.
The medium was removed next day and three-fold serial dilutions of compounds in 100 μl medium were added to the cells. The plates with cells were incubated for 7 hours at 37° C. with 5% CO2. After 50 μl of the medium was removed, 30 μl of ONE-Glo™ Luciferase Assay System reagent (cat. #E6120, Promega, Madison, USA) was added to each well and luminescence was read on Synergy H1 (Biotek, Winooski, USA). […] (cat. #tlrl-nacga23), and 2′2′-cGAMP (cat. #tlrl-nacga22) were purchased from Invivogen (San Diego, USA).

Chain of WT STING (Q86WV6 whole entry H232R): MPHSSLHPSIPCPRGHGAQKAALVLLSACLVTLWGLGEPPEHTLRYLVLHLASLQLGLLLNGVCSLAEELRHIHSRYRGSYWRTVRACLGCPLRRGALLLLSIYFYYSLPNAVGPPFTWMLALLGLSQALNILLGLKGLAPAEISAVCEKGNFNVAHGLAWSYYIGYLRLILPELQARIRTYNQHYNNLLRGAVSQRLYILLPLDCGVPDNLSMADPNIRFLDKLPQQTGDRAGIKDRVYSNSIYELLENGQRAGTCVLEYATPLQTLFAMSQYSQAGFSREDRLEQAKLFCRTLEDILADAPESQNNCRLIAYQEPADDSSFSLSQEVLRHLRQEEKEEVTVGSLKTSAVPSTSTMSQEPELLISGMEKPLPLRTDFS

| EC50 [nM] | SMILES |
| --- | --- |
| 340 | Nc1ncnc2c1ncn2[C@@H]1CO[C@@H]2COP(=O)(S)O[C@H]3[C@@H](F)[C@H](n4cnc5c(N)ncnc54)O[C@@H]3COP(=O)(S)O[C@@H]12 (stereo partly drawn) [Compound 55, (1S,6R,8R,9R,10R,15R,18R)-8,18-bis(6-amino-9H-purin-9-yl)-9-fluoro-3,12-disulfanyl-2,4,7,11,13,16-hexaoxa-3λ^5,12λ^5-diphosphatricyclo[13.3.0.0^6,10]octadecane-3,12-dione] |
| 156 | Nc1ncnc2c1ncn2[C@@H]1CO[C@@H]2COP(=O)(S)O[C@H]3[C@@H](F)[C@H](n4cnc5c(N)ncnc54)O[C@@H]3COP(=O)(S)O[C@@H]12 (stereo partly drawn) [Compound 54, (1S,6R,8R,9R,10R,15R,18R)-8,18-bis(6-amino-9H-purin-9-yl)-9-fluoro-3,12-disulfanyl-2,4,7,11,13,16-hexaoxa-3λ^5,12λ^5-diphosphatricyclo[13.3.0.0^6,10]octadecane-3,12-dione] |
